Experimental findings from patent US20140274984A1, “ACID ADDITION SALTS OF 5ALPHA-HYDROXY-6BETA-[2-(1H-IMIDAZOL-4-YL)ETHYLAMINO]CHOLESTAN-3BETA-OL” (INSERM (INSTITUT NATIONAL DE LA SANTÉ ET DE LA RECHERE …, priority 2011, published 2014) are described below.

A short description of the series: Water solubility at room temperature (shake 5 hours, filtered supernatant, HPLC with calibration curve). In kind it is physicochemical. The settings on record: shaken 5 hours. Here is the method:
An adequate amount of each sample was taken. Water (50% v/v) was added to each sample, and the mixture was shaken at room temperature for 5 hours. The supernatant was filtered through a filter, and diluted with a mixed solution of water 0.1% TFA/acetonitrile as necessary to give a sample solution. The concentration (mg/ml) of the sample solution was measured by high performance liquid chromatography (HPLC) with a calibration curve method, and taken as the solubility in water at room temperature.
HPLC Analysis Conditions:
HPLC purifications and analyses were carried out using an LC200 series Perkin Elmer apparatus, and diode array UV detector, using an Ultrasep C18 RP 100 column from Bischoff Chromatography.
As for “5alpha-Hydroxy-6beta-[2-(1H-imidazol-4-yl)ethylamino]cholestan-3beta-ol, pamoate [Example 7]”, the “Solubility in water at room temperature” value came to 1.4 mg/mL.
In the case of “5alpha-Hydroxy-6beta-[2-(1H-imidazol-4-yl)ethylamino]cholestan-3beta-ol, mesylate [Example 13]”, the “Solubility in water at room temperature” value amounted to 11 mg/mL.
The value for “5alpha-Hydroxy-6beta-[2-(1H-imidazol-4-yl)ethylamino]cholestan-3beta-ol, acetate [Example 14]” was 4.5 mg/mL.
